In patent publication US20250195484A1, “CEREBLON LIGANDS AND USES THEREOF” (priority 2022, published 2025):

The compounds below were run against T1, STAT3 (Homo sapiens, UniProt P40763) (assay: STAT3 degradation HiBiT assay (STAT3-HIBIT KI HeLa)). Settings: STAT3-HIBIT KI HeLa cells, 24 hours.
T1 construct: host or cells: HeLa (STAT3-HiBiT CRISPR knock-in clone)
T1 sequence (P40763 whole entry): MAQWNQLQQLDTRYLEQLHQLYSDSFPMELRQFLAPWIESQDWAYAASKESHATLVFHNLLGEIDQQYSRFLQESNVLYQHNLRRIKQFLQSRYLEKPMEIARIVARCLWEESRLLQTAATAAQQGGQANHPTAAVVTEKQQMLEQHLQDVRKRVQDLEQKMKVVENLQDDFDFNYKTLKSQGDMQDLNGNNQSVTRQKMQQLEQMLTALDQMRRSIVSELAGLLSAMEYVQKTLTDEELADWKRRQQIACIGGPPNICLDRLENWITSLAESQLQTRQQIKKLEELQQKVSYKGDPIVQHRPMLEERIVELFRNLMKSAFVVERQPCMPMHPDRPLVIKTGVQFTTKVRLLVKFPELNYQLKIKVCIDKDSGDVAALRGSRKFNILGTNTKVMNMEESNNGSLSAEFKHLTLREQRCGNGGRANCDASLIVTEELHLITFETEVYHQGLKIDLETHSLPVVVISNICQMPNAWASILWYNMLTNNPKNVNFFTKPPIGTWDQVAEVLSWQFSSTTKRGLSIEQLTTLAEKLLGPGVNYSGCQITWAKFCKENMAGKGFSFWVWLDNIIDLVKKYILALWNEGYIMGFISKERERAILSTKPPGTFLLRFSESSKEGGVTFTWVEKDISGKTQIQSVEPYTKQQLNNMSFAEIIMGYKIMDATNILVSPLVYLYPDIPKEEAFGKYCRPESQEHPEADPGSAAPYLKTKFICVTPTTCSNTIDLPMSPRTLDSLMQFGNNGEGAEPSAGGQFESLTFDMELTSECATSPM
Type: cell-based
Procedure: STAT3-HIBIT KI HeLa cell line was purchased from Promega. This cell line is a clone created by using CRISPR-Cas9 to fuse HiBIT to the 3′ end of STAT3 in HeLa cells. DMEM medium and FBS were purchased from Gibco/Thermo Fisher Scientific. STAT3 degradation was determined based on quantification of luminescent signal using Nano-Glo HiBIT Lytic Detection System. In a typical procedure, cells seeded at 20000 cells per well in 96-well white plates (Corning) were incubated with serially diluted compounds for 24 hours at 37° C. with 5% CO2. At the end of treatment, Nano-Glo HiBIT Lytic Detection reagents was added to the wells and luminescence was acquired on TECAN PSARK plate reader. Untreated cells were used as control. Data points were fit with a four-parameter equation to generate a concentration-response curve. IC50 values were calculated using a nonlinear regression analysis of the mean±SD from triplicate.
In the case of `NC(=O)CC[C@H](NC(=O)[C@@H]1CC[C@@H]2CCN(C(=O)CCCCC(=O)N3CCC4(CC3)COc3c4ccc4c3CN([C@H]3CCC(=O)NC3=O)C4=O)C[C@H](NC(=O)c3cc4cc(C(F)(F)P(=O)(O)O)ccc4s3)C(=O)N21)C(=O)NC(c1ccccc1)c1ccccc1` [STD 22, ((2-(((5S,8S,10aR)-8-(((S)-5-amino-1-(benzhydrylamino)-1,5-dioxopentan-2-yl)carbamoyl)-3-(6-(7-((S)-2,6-dioxopiperidin-3-yl)-6-oxo-7,8-dihydro-2H,6H-spiro[furo[2,3-e]isoindole-3,4′-piperidin]-1′-yl)-6-oxohexanoyl)-6-oxodecahydropyrrolo[1,2-a][1,5]diazocin-5-yl)carbamoyl)benzo[b]thiophen-5-yl)difluoromethyl)phosphonic acid], the DC50 is reported as 1 to 10 µM and the Dmax is reported as < 40%.

These compounds were tested against T2, CBP (Homo sapiens, UniProt Q92793) (assay: CBP degradation, western blot, 22Rv1). Settings: 22Rv1, 5 h.
T2 construct: endogenous in cells; host or cells: 22Rv1
T2 sequence (Q92793 whole entry): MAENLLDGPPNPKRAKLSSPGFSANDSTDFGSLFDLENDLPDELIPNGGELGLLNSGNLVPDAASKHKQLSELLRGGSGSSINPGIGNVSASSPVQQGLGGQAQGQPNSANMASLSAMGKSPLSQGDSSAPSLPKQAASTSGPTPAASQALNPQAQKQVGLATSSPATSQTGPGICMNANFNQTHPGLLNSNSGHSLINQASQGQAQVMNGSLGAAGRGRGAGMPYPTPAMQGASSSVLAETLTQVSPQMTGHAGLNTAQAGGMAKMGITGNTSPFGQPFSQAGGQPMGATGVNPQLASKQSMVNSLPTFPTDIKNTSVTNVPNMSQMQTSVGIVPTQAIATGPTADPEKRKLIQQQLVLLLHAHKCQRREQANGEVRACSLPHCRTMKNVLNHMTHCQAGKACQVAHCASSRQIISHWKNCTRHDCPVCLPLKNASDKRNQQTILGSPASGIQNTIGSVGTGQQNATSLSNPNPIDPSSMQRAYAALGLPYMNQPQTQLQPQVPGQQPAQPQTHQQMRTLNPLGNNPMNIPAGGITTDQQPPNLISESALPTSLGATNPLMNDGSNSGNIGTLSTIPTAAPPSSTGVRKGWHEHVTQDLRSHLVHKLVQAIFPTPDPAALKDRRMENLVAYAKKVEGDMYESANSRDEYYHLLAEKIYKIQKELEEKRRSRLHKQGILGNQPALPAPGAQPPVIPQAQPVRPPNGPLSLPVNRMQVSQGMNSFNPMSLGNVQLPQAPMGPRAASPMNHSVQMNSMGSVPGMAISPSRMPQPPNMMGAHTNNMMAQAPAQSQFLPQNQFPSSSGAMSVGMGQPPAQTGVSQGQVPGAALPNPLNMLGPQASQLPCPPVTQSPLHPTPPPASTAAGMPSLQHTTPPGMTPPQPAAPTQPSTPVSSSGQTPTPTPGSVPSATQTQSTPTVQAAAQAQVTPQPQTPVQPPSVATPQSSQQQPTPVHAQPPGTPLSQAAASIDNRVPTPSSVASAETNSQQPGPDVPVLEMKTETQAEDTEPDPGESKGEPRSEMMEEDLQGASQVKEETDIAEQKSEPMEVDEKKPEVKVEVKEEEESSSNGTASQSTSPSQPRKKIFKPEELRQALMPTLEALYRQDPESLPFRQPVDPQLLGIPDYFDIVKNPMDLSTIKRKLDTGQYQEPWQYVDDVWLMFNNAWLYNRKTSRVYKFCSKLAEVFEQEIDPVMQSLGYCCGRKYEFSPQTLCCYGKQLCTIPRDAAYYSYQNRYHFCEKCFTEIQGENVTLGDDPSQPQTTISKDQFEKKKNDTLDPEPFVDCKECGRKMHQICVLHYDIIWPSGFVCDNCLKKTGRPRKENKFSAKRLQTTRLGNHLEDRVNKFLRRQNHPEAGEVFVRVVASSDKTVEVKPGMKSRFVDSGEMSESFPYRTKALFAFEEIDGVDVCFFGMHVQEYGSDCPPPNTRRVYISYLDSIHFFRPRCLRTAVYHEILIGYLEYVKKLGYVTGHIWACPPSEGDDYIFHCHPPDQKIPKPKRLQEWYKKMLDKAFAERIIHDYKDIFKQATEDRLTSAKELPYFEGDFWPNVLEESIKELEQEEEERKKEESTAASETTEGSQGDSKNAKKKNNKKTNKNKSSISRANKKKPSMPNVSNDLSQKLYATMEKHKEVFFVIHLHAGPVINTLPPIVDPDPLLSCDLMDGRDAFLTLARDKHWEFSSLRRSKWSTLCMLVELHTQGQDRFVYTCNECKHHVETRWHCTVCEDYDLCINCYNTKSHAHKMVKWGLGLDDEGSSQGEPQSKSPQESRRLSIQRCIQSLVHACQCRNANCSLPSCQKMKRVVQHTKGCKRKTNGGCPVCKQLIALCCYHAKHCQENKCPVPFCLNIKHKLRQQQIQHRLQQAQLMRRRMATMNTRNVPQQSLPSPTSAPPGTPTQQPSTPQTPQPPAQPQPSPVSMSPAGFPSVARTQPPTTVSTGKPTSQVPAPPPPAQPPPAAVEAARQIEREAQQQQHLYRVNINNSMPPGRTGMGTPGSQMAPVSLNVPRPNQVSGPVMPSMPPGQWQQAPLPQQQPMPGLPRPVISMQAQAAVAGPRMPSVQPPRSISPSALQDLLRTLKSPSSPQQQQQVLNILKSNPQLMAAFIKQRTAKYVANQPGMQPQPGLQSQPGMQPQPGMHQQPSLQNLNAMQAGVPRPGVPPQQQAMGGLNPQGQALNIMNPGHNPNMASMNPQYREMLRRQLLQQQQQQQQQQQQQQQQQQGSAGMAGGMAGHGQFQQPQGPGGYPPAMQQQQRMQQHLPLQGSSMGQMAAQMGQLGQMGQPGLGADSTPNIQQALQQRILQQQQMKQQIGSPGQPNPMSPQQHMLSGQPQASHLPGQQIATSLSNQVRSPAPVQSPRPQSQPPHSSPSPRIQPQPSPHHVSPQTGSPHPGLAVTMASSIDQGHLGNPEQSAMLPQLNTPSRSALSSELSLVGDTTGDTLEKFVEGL
Type: cell-based
Procedure: (§1) WesternT Blot Analysis. Western blot analysis was performed essentially as described previously. The cells treated with indicated compounds were lysed in Radioimmunoprecipitation Assay Protein Lysis and Extraction Buffer (25 mmol/L Tris.HCl, pH 7.6, 150 mmol/L NaCl, 1% Nonidet P-40, 1% sodium deoxycholate, and 0.1% sodium dodecyl sulfate) containing proteinase inhibitor cocktail (Roche Diagnostics, Mannheim, Germany). Equal amounts of total protein were electrophoresed through 10% SDS-polyacrylamide gels after determination of protein concentration by BCA assay (Fisher Scientific, Pittsburgh, PA). The separated protein bands were transferred onto PVDF membranes (GE Healthcare Life Sciences, Marlborough, MA) and blotted against different antibodies, as indicated. The blots were scanned, and the band intensities were quantified using GelQuant.NET software provided by biochemlabsolutions.com. The relative mean intensity of target proteins was expressed after normalization to the intensity of glyceraldehyde-3-phosphate dehydrogenase bands.
For `CC(=O)N1CCc2c(c(N3CCCc4cc(-c5cnn(C)c5)c(C(F)F)cc43)nn2C2CCN(CC(=O)N3CCC4(CC3)COc3c4ccc4c3CN([C@H]3CCC(=O)NC3=O)C4=O)CC2)C1` [CPD-001, (S)-3-(1′-(2-(4-(5-acetyl-3-(7-(difluoromethyl)-6-(1-methyl-1H-pyrazol-4-yl)-3,4-dihydroquinolin-1(2H)-yl)-4,5,6,7-tetrahydro-1H-pyrazolo[4,3-c]pyridin-1-yl)piperidin-1-yl)acetyl)-6-oxo-6,8-dihydro-2H,7H-spiro[furo[2,3-e]isoindole-3,4′-piperidin]-7-yl)piperidine-2,6-dione], the “CBP Degradation DCmax” value was “A (A (≥90%))” and the DC50 was < 0.0001 µM.
In the case of `CC(=O)N1CCc2c(c(N3CCCc4cc(-c5cnn(C)c5)c(C(F)F)cc43)nn2C2CCN(C(=O)CN3CCC4(CC3)COc3c4ccc4c3CN([C@H]3CCC(=O)NC3=O)C4=O)CC2)C1` [CPD-002, (S)-3-(1′-(2-(4-(5-acetyl-3-(7-(difluoromethyl)-6-(1-methyl-1H-pyrazol-4-yl)-3,4-dihydroquinolin-1(2H)-yl)-4,5,6,7-tetrahydro-1H-pyrazolo[4,3-c]pyridin-1-yl)piperidin-1-yl)-2-oxoethyl)-6-oxo-6,8-dihydro-2H,7H-spiro[furo[2,3-e]isoindole-3,4′-piperidin]-7-yl)piperidine-2,6-dione], the “CBP Degradation DCmax” value is reported as “A (A (≥90%))” and the DC50 is reported as < 0.0001 µM.
In the case of `CC(=O)N1CCc2c(c(N3CCCc4cc(-c5cnn(C)c5)c(C(F)F)cc43)nn2C2CCC(N3CCC4(CC3)COc3c4ccc4c3CN([C@H]3CCC(=O)NC3=O)C4=O)CC2)C1` (stereo partly drawn) [CPD-003, (S)-3-(1′-(4-(5-acetyl-3-(7-(difluoromethyl)-6-(1-methyl-1H-pyrazol-4-yl)-3,4-dihydroquinolin-1(2H)-yl)-4,5,6,7-tetrahydro-1H-pyrazolo[4,3-c]pyridin-1-yl)cyclohexyl)-6-oxo-6,8-dihydro-2H,7H-spiro[furo[2,3-e]isoindole-3,4′-piperidin]-7-yl)piperidine-2,6-dione], the “CBP Degradation DCmax” value is reported as “A (A (≥90%))” and the DC50 is reported as < 0.0001 µM.
For `CC(=O)N1CCc2c(c(N3CCCc4cc(-c5cnn(C)c5)c(C(F)F)cc43)nn2[C@H]2CC[C@H](CN3CCC4(CC3)COc3c4ccc4c3CN([C@H]3CCC(=O)NC3=O)C4=O)CC2)C1` [CPD-004, (S)-3-(1′-(((1r,4S)-4-(5-acetyl-3-(7-(difluoromethyl)-6-(1-methyl-1H-pyrazol-4-yl)-3,4-dihydroquinolin-1(2H)-yl)-4,5,6,7-tetrahydro-1H-pyrazolo[4,3-c]pyridin-1-yl)cyclohexyl)methyl)-6-oxo-6,8-dihydro-2H,7H-spiro[furo[2,3-e]isoindole-3,4′-piperidin]-7-yl)piperidine-2,6-dione], the “CBP Degradation DCmax” value was “A (A (≥90%))” and the DC50 was < 0.0001 µM.

Each compound was assayed against T3, P300 (Homo sapiens, UniProt Q09472) (assay: P300 degradation, western blot, 22Rv1). Settings: 22Rv1, 5 h.
T3 construct: endogenous in cells; host or cells: 22Rv1
Type: cell-based
Procedure: as §1
In the case of `CC(=O)N1CCc2c(c(N3CCCc4cc(-c5cnn(C)c5)c(C(F)F)cc43)nn2C2CCN(CC(=O)N3CCC4(CC3)COc3c4ccc4c3CN([C@H]3CCC(=O)NC3=O)C4=O)CC2)C1` [CPD-001, (S)-3-(1′-(2-(4-(5-acetyl-3-(7-(difluoromethyl)-6-(1-methyl-1H-pyrazol-4-yl)-3,4-dihydroquinolin-1(2H)-yl)-4,5,6,7-tetrahydro-1H-pyrazolo[4,3-c]pyridin-1-yl)piperidin-1-yl)acetyl)-6-oxo-6,8-dihydro-2H,7H-spiro[furo[2,3-e]isoindole-3,4′-piperidin]-7-yl)piperidine-2,6-dione], the DC50 is reported as 0.0001 to 0.001 µM and the “P300 Degradation DCmax” value is reported as “A (A (≥90%))”.
With `CC(=O)N1CCc2c(c(N3CCCc4cc(-c5cnn(C)c5)c(C(F)F)cc43)nn2C2CCN(C(=O)CN3CCC4(CC3)COc3c4ccc4c3CN([C@H]3CCC(=O)NC3=O)C4=O)CC2)C1` [CPD-002, (S)-3-(1′-(2-(4-(5-acetyl-3-(7-(difluoromethyl)-6-(1-methyl-1H-pyrazol-4-yl)-3,4-dihydroquinolin-1(2H)-yl)-4,5,6,7-tetrahydro-1H-pyrazolo[4,3-c]pyridin-1-yl)piperidin-1-yl)-2-oxoethyl)-6-oxo-6,8-dihydro-2H,7H-spiro[furo[2,3-e]isoindole-3,4′-piperidin]-7-yl)piperidine-2,6-dione] the DC50 was < 0.0001 µM and the “P300 Degradation DCmax” value was “A (A (≥90%))”.
For `CC(=O)N1CCc2c(c(N3CCCc4cc(-c5cnn(C)c5)c(C(F)F)cc43)nn2C2CCC(N3CCC4(CC3)COc3c4ccc4c3CN([C@H]3CCC(=O)NC3=O)C4=O)CC2)C1` (stereo partly drawn) [CPD-003, (S)-3-(1′-(4-(5-acetyl-3-(7-(difluoromethyl)-6-(1-methyl-1H-pyrazol-4-yl)-3,4-dihydroquinolin-1(2H)-yl)-4,5,6,7-tetrahydro-1H-pyrazolo[4,3-c]pyridin-1-yl)cyclohexyl)-6-oxo-6,8-dihydro-2H,7H-spiro[furo[2,3-e]isoindole-3,4′-piperidin]-7-yl)piperidine-2,6-dione], the DC50 was < 0.0001 µM and the “P300 Degradation DCmax” value was “A (A (≥90%))”.
In the case of `CC(=O)N1CCc2c(c(N3CCCc4cc(-c5cnn(C)c5)c(C(F)F)cc43)nn2[C@H]2CC[C@H](CN3CCC4(CC3)COc3c4ccc4c3CN([C@H]3CCC(=O)NC3=O)C4=O)CC2)C1` [CPD-004, (S)-3-(1′-(((1r,4S)-4-(5-acetyl-3-(7-(difluoromethyl)-6-(1-methyl-1H-pyrazol-4-yl)-3,4-dihydroquinolin-1(2H)-yl)-4,5,6,7-tetrahydro-1H-pyrazolo[4,3-c]pyridin-1-yl)cyclohexyl)methyl)-6-oxo-6,8-dihydro-2H,7H-spiro[furo[2,3-e]isoindole-3,4′-piperidin]-7-yl)piperidine-2,6-dione], the DC50 is reported as < 0.0001 µM and the “P300 Degradation DCmax” value is reported as “A (A (≥90%))”.

Each compound was assayed against CRBN/DDB1 (Homo sapiens, UniProt Q96SW2) (assay: biochemical). Settings: not given.
CRBN/DDB1, sequence (Q96SW2 whole entry): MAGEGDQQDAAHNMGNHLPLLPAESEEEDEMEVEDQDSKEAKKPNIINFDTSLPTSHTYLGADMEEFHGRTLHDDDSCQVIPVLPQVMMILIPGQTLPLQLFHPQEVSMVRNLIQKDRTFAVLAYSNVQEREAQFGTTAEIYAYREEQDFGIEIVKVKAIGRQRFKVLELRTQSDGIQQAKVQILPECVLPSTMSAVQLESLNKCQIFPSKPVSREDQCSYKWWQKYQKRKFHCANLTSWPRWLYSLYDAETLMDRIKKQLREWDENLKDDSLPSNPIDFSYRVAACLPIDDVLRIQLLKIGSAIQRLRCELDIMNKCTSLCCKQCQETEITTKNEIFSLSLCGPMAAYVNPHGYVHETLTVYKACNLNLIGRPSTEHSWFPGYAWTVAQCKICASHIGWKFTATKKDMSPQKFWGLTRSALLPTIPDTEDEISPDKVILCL
CRBN/DDB1, sequence (Q16531 whole entry, further chain): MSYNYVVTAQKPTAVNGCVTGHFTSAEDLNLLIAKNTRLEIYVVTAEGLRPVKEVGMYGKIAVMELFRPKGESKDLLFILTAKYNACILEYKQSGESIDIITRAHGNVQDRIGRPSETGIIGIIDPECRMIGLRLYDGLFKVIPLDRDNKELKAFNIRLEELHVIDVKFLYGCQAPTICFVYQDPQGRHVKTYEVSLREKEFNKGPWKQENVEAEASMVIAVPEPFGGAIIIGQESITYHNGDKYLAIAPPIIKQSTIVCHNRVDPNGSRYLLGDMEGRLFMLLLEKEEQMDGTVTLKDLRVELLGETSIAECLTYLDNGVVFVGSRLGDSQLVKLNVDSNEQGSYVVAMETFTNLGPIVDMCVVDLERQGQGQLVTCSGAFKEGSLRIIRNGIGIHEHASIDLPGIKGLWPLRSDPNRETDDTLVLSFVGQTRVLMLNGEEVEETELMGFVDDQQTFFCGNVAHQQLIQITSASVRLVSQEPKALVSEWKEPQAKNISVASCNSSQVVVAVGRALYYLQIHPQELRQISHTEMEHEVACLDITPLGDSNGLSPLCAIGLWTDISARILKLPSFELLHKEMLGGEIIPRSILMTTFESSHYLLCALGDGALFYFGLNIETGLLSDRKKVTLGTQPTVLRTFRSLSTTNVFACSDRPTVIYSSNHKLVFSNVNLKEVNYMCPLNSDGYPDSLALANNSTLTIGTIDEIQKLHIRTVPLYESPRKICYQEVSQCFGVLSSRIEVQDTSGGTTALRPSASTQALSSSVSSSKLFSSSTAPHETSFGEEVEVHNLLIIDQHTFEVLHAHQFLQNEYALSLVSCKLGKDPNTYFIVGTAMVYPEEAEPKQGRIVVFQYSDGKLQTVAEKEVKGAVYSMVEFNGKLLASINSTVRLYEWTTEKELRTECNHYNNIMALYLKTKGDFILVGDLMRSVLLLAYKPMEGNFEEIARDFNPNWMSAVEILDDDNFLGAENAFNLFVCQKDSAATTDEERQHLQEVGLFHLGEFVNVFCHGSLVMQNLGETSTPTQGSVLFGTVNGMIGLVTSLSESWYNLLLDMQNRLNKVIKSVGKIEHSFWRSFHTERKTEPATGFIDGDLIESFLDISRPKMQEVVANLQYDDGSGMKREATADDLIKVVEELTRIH
`O=C1CCC(N2Cc3cc4c(cc3C2=O)OCC42CCNCC2)C(=O)N1` (stereo not shown) [Compound A1, 3-(7-oxo-5,7-dihydro-2H,6H-spiro[furo[2,3-f]isoindole-3,4′-piperidin]-6-yl)piperidine-2,6-dione] gave an IC50 of 0.94 µM.
`O=C1CCC(N2Cc3cc4c(cc3C2=O)CCOC42CCNCC2)C(=O)N1` (stereo not shown) [Compound A3, 3-(1′-oxo-1′,3′,7′,8′-tetrahydro-2′H-spiro[piperidine-4,5′-pyrano[3,4-f]isoindol]-2′-yl)piperidine-2,6-dione] showed an IC50 of 0.27 µM.
With `CN1CCC2(CC1)COc1cc3c(cc12)CN(C1CCC(=O)NC1=O)C3=O` (stereo not shown) [Compound A4, 3-(1′-methyl-7-oxo-5,7-dihydro-2H,6H-spiro[furo[2,3-f]isoindole-3,4′-piperidin]-6-yl)piperidine-2,6-dione] the IC50 was 0.096 µM.
In the case of `CC(=O)N1CCC2(CC1)COc1cc3c(cc12)CN(C1CCC(=O)NC1=O)C3=O` (stereo not shown) [Compound A5, 3-(1′-acetyl-7-oxo-5,7-dihydro-2H,6H-spiro[furo[2,3-f]isoindole-3,4′-piperidin]-6-yl)piperidine-2,6-dione], the IC50 is reported as 3.8 µM.
`CN1CCC2(CC1)OCCc1cc3c(cc12)CN(C1CCC(=O)NC1=O)C3=O` (stereo not shown) [Compound A6, 3-(1-methyl-1′-oxo-1′,3′,7′,8′-tetrahydro-2′H-spiro[piperidine-4,5′-pyrano[3,4-f]isoindol]-2′-yl)piperidine-2,6-dione] gave an IC50 of 2.2 µM.
Work on `CC(=O)N1CCC2(CC1)OCCc1cc3c(cc12)CN(C1CCC(=O)NC1=O)C3=O` (stereo not shown) [Compound A7, 3-(1-acetyl-1′-oxo-1′,3′,7′,8′-tetrahydro-2′H-spiro[piperidine-4,5′-pyrano[3,4-f]isoindol]-2′-yl)piperidine-2,6-dione] yielded an IC50 of 3 µM.
Work on `O=C1CCC(N2Cc3c(ccc4c3OCC43CCCNCC3)C2=O)C(=O)N1` (stereo not shown) [Compound A8, 3-(6′-oxo-6′,8′-dihydro-2′H,7′H-spiro[azepane-4,3′-furo[2,3-e]isoindol]-7′-yl)piperidine-2,6-dione] yielded an IC50 of 0.75 µM.
In the case of `O=C1CCC(N2Cc3c(ccc4c3OCC43CCNC3)C2=O)C(=O)N1` (stereo not shown) [Compound A9, 3-(6-oxo-6,8-dihydro-2H,7H-spiro[furo[2,3-e]isoindole-3,3′-pyrrolidin]-7-yl)piperidine-2,6-dione], the IC50 is reported as 0.21 µM.
Work on `CC(C)(C)OC(=O)N1CCC2(CC1)COc1cc3c(cc12)CN(C1CCC(=O)NC1=O)C3=O` (stereo not shown) [Compound A14, tert-butyl 6-(2,6-dioxopiperidin-3-yl)-7-oxo-6,7-dihydro-2H,5H-spiro[furo[2,3-f]isoindole-3,4′-piperidine]-1′-carboxylate] yielded an IC50 of 0.29 µM.
`O=C1CC[C@H](N2Cc3c(ccc4c3OCC43CCNCC3)C2=O)C(=O)N1` [Compound A15, (S)-3-(6-oxo-6,8-dihydro-2H,7H-spiro[furo[2,3-e]isoindole-3,4′-piperidin]-7-yl)piperidine-2,6-dione] showed an IC50 of 0.055 µM.
Work on `O=C1CCC(N2Cc3c(ccc4c3OCC43CCNCC3(F)F)C2=O)C(=O)N1` (stereo not shown) [Compound A17, 3-(3′,3′-difluoro-6-oxo-6,8-dihydro-2H,7H-spiro[furo[2,3-e]isoindole-3,4′-piperidin]-7-yl)piperidine-2,6-dione] yielded an IC50 of 0.23 µM.
`O=C1CC[C@H](NC(=O)c2ccc3c(n2)OCC32CCNCC2)C(=O)N1` [Compound A18, (S)-N-(2,6-dioxopiperidin-3-yl)-2H-spiro[furo[2,3-b]pyridine-3,4′-piperidine]-6-carboxamide] was tested, and the IC50 was > 10000 µM.
Compound `Cc1cc2c(c3c1C(=O)N([C@H]1CCC(=O)NC1=O)C3)OCC21CCNCC1` [Compound A19, (S)-3-(5-methyl-6-oxo-6,8-dihydro-2H,7H-spiro[furo[2,3-e]isoindole-3,4′-piperidin]-7-yl)piperidine-2,6-dione] has an IC50 of 0.18 µM.
With `O=C1CC[C@H](N2Cc3c4c(cc(Cl)c3C2=O)C2(CCNCC2)CO4)C(=O)N1` [Compound A20, (S)-3-(5-chloro-6-oxo-6,8-dihydro-2H,7H-spiro[furo[2,3-e]isoindole-3,4′-piperidin]-7-yl)piperidine-2,6-dione] the IC50 was 0.038 µM.
`COc1cc2c(c3c1C(=O)N([C@H]1CCC(=O)NC1=O)C3)OCC21CCNCC1` [Compound A21, (S)-3-(5-methoxy-6-oxo-6,8-dihydro-2H,7H-spiro[furo[2,3-e]isoindole-3,4′-piperidin]-7-yl)piperidine-2,6-dione] showed an IC50 of 0.17 µM.
Work on `COc1cc2c(c3c1C(=O)N([C@@H]1CCC(=O)NC1=O)C3)OCC21CCNCC1` [Compound A22, (R)-3-(5-methoxy-6-oxo-6,8-dihydro-2H,7H-spiro[furo[2,3-e]isoindole-3,4′-piperidin]-7-yl)piperidine-2,6-dione] yielded an IC50 of 3.9 µM.
